Results published in patent US20080269666A1, “Microneedles and Methods for Microinfusion” (GEORGIA TECH RESEARCH CORPORATION, priority 2005, published 2008).

Legend:
[1] = Fluorescence microscopy of skin distribution after microinjection into hairless rat skin; assay type: in vivo
Source text: FIG. 17A-B are micrographs showing hairless rat skin microinjected in vivo with FITC-insulin. Histological sections are shown using brightfield microscopy with H&E staining (FIG. 17A) and fluorescence microscopy showing injection and distribution of insulin in the skin (FIG. 17B). Scale bar=100 μm. Single, hollow, glass microneedles were inserted into the back skin of anesthetized rats placed in a prone position or into human cadaver skin (2×2 cm^2) placed on a x-y stage. Compounds delivered included blue tissue-marking dye in PBS (20% v/v, Shandon, Pittsburg, Pa.), green-fluorescent calcein in PBS (10 μM-10 mM, Molecular Probes, Eugene, Oreg.). After microinfusion experiments, skin samples were preserved as described in Example 1. Histological sections of skin were examined by stereoscopic (SZX12, Olympus, Melville, N.Y.) and fluorescence microscopy (IX 70, Olympus). Images were recorded by a digital camera (Spot RT Slider camera, Model 231, Diagnostic Instruments, Sterling Heights, Mich.) and analyzed using image analysis software (Image Pro Plus, version 4.5, Media Cybernetics, Silver Spring, Md.). The volume of injected liquid was imaged in the skin for quantitative analysis using one of three different methods. […] During insulin delivery experiments, rats were anesthetized. […]

[2] = Effect of hyaluronidase on microneedle infusion flow rate into human cadaver skin in vitro; conditions: 200 U/ml hyaluronidase in sulforhodamine solution vs without; bevel-tip microneedle inserted 1080 μm; 138 kPa; ANOVA p≦0.01
Procedure: To measure flow rate into skin during microneedle infusion, a single microneedle was inserted into human cadaver skin to microinfuse sulforhodamine solution and the infusion flow rate was measured over time. As an aid to visualizing flow into skin, sulforhodamine-B dye (Molecular Probes, Eugene, Oreg.) was added to PBS, stirred, and filtered (0.2 μm pore size, Nalge Nunc International, Rochester, N.Y.) to make 1×10^−3 M sulforhodamine solution. […]
The flow rate of sulforhodamine solution microinjection was determined by following movement of the gas-liquid meniscus in the syringe reservoir over time with a digital video camera (DCR-TRV460, Sony, Tokyo, Japan) and image analysis software (Adobe Photoshop 7.0, Adobe Systems, San Jose, Calif.) after converting the captured movie into sequences of still images (Adobe Premiere 6.0, Adobe Systems). […]
The effect of hyaluronidase was determined by comparing to an infusion fluid containing 200 U/ml hyaluronidase prepared by mixing 3 ml of hyaluronidase solution (Vitrase™, 200 U/ml, ISTA Pharmaceuticals, Irvine, Calif.) with 7 mL of 1×10^−3 M sulforhodamine solution. […] Microinfusion flow rate was measured as a function of retraction distance during infusion in the absence (white bars) or presence (black bars) of hyaluronidase. Data are expressed as mean values (n≧3) with standard deviation bars. […]

diabetic hairless rats = experiment: Blood glucose in diabetic hairless rats after insulin microinfusion through a hollow microneedle; assay type: in vivo, rat
Procedure: During insulin delivery experiments, rats were anesthetized. Microneedle infusion was carried out as described in Example 4, using clinical insulin solution (100 U/ml, Humulin R, Eli Lilly, Indianapolis, Ind.), and FITC-labeled insulin in PBS (1 mg/ml, Sigma).
As a companion experiment, insulin was microinjected into the skin of diabetic hairless rats in vivo and blood glucose concentration was monitored over time. Microinjection was carried out via microneedle insertion to a depth of 500-800 μm and infusing for 30 min. The volume of insulin solution microinjected into diabetic rat skin was 5±1 μl over the 30-min infusion period. Over a 4.5-h monitoring period after infusion, blood glucose level dropped and then plateaued at approximately 25% below pre-treatment values. […] Data expressed as mean±SEM.
Recognizing that needle retraction can increase microinfusion, the insulin delivery experiment was repeated by inserting microneedles to the same initial depth in the skin and then retracting by 150-200 μm back toward the skin surface. […] The volume of insulin solution microinjected into diabetic rat skin after needle retraction was 29±12 μl over the 30-min infusion period. […]

O=C(O)CN(CC(=O)O)Cc1cc2c(cc1O)Oc1cc(O)c(CN(CC(=O)O)CC(=O)O)cc1C21OC(=O)c2ccccc21 [calcein]
distribution in skin after microinjection (fluorescence) ([1]; injection at a specific location within the dermis, histological sections): fluoresced more uniformly in both dermis and epidermis

fluorescently labeled insulin: FITC-labeled insulin in PBS (1 mg/ml, Sigma)
distribution in skin after microinjection (fluorescence) ([1]; rat, in vivo): distribute throughout the dermis

hyaluronidase
increase in infusion flow rate [2]: 7 fold

insulin
blood glucose level drop below pre-treatment values (diabetic hairless rats; microneedle inserted 500-800 μm, no retraction, 30-min infusion of 100 U/ml insulin solution (5±1 μl injected), 4.5-h monitoring after infusion, plateau): approximately 25%
blood glucose level drop below pre-treatment values (diabetic hairless rats; microneedle inserted to same depth then retracted 150-200 μm, 30-min infusion of 100 U/ml insulin solution (29±12 μl injected)): approximately 70%
